{"source": "patent US20250237649A1", "about": "(priority 2021, published 2025)", "key": {"THP1 macrophages": {"system": "THP1 macrophages", "assay": "Cytotoxicity against THP1 macrophages", "assay_type": "cell-based"}, "Mtb in THP-1 macrophages": {"system": "Mtb in THP-1 macrophages", "assay": "Antitubercular activity (Mtb survival) in THP-1 macrophages", "assay_type": "cell-based, Mycobacterium tuberculosis", "conditions": "for IC50: Mycobacterium tuberculosis, THP1MACROPHAGES", "text": "FIG. 18A depicts time-dependent antitubercular activity in THP-1 macrophages. FIG. 18B depicts the average of the Hill slope values corresponding to the IC50 values used to plot the mean IC50 in FIG. 18A."}, "M. bovis cells [1]": {"system": "M. bovis cells", "assay_type": "cell-based, Mycobacterium bovis"}, "M. bovis cells [2]": {"system": "M. bovis cells", "assay_type": "cell-based, Mycobacterium bovis", "conditions": "cell culture"}, "[3]": {"molecular_target": "T1, purified recombinant Hip1 (Mycobacterium tuberculosis, UniProt P9WHR3)", "T1 sequence (P9WHR3 31-520)": "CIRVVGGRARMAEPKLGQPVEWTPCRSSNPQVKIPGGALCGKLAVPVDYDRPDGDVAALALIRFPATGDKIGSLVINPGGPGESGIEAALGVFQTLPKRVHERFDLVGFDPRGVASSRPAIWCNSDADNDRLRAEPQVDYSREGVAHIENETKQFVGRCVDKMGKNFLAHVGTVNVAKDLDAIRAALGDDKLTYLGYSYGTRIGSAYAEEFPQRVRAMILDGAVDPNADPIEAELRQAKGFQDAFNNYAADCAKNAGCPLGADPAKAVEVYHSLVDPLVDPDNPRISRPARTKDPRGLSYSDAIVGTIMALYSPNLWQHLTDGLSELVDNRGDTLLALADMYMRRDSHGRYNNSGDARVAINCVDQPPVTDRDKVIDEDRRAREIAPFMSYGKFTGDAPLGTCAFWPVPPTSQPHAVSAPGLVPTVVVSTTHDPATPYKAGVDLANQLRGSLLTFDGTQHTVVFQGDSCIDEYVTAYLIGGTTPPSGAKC", "conditions": "cited from earlier work"}, "[4]": {"assay": "Cytotoxicity towards RAW macrophages", "assay_type": "cell-based", "conditions": "mouse, read-out: TC50, cytotoxicity towards RAW macrophages", "protocol": "(§1) Cells were seeded in plates and incubated overnight in a humidified incubator at 37° C., 5% CO2. […] After 72-hours of incubation, CellTiter-Glo® reagent (Promega) was added to plates and the relative luminescent units (RLU) were measured using a Synergy 4 plate reader (Biotek). […] Growth inhibition curves were fitted using the Levenberg-Marquardt algorithm. The IC50 was defined as the compound concentration that produced 50% of the growth inhibitory response."}, "[5]": {"assay": "Cytotoxicity towards HepG2 hepatocytes", "assay_type": "cell-based", "conditions": "human, read-out: TC50, cytotoxicity towards HepG2 hepatocytes", "protocol": "as §1"}, "[6]": {"conditions": "THP-1, 24 h, read-out: IC50 Mean ± SEM"}, "[7]": {"conditions": "THP-1, 72 h, read-out: IC50 Mean ± SEM"}, "[8]": {"conditions": "THP-1, 72 h, read-out: IC50 Range"}, "[9]": {"conditions": "THP-1 macrophages, time point 48 h, read-out: IC50 Mean ± SEM"}, "[10]": {"conditions": "THP-1 macrophages, time point 48 h, read-out: IC50 Range"}}, "note": "“Also recorded” adds a separate entry of the source. Where two headings read alike, the source gives them in different places. Non-standard residues stand in square brackets, D forms with d. Residues, ends and D or L forms follow the SMILES beside them. *: point of attachment. Sta = CC(C)C[C@H](N)[C@@H](O)CC(=O)O; pNA = O=[N+]([O-])c1ccc(N*)cc1; Isovaleryl = CC(C)CC(=O)*; Cbz = O=C(OCc1ccccc1)*", "data": [{"smiles": "COC(=O)C(=O)[C@H](C[C@@H]1CCNC1=O)NC(=O)[C@H](CCCCN)NC(=O)[C@H](Cc1ccccc1)NC(=O)OCc1ccccc1", "note": "[Inhibitor Compound 2, Cbz-Phe-Lys-Glnlac-CO—CO2Me]", "values": [{"measurement": "Cytotoxicity against THP1 macrophages", "setting": "THP1 macrophages", "result": "does not have significant cytotoxicity"}, {"measurement": "IC50", "setting": "Mtb in THP-1 macrophages; [6]", "result": "104 ± 39.1", "unit": "µM"}, {"measurement": "IC50", "setting": "Mtb in THP-1 macrophages; THP-1, 24 h, read-out: IC50 Range", "result": "44.4 to 178", "unit": "µM"}, {"measurement": "IC50", "setting": "Mtb in THP-1 macrophages; [7]", "result": "51.8 ± 14.7", "unit": "µM"}, {"measurement": "IC50", "setting": "Mtb in THP-1 macrophages; [8]", "result": "25.6 to 53.3", "unit": "µM"}, {"measurement": "IC50", "setting": "Mtb in THP-1 macrophages; [9]", "result": "58.4 ± 1.15", "unit": "µM"}, {"measurement": "IC50", "setting": "Mtb in THP-1 macrophages; [10]", "result": "57.3 to 59.6", "unit": "µM"}, {"measurement": "Mtb survival in THP1 macrophages", "setting": "Mtb in THP-1 macrophages", "result": "effectively reduces Mtb survival"}, {"measurement": "Inhibition of cleavage of UFNG1 by M. bovis cells", "setting": "M. bovis cells [1]; FRET substrate UFNG1", "result": "most significant inhibition"}]}, {"smiles": "CC(C)C[C@H](NC(=O)[C@H](CCCCN)NC(=O)[C@H](Cc1ccccc1)NC(=O)OCc1ccccc1)C(=O)Nc1ccc([N+](=O)[O-])cc1", "note": "[Cbz-Phe-Lys-Leu-pNa] (Cbz-Phe-Lys-Leu-pNA)", "values": [{"measurement": "Cleavage of substrate by M. bovis cells", "setting": "M. bovis cells [2]", "result": "cleaved by M. bovis"}]}, {"smiles": "CC(=O)N[C@@H](CC(C)C)C(=O)N[C@@H](CC(C)C)C(=O)N[C@H](C=O)CCCNC(=N)N", "note": "[leupeptin]", "values": [{"measurement": "Inhibition of Hip1 (studies have shown)", "setting": "[3]", "result": "inhibit Hip1"}]}, {"smiles": "CC(C)C[C@H](NC(=O)[C@H]1O[C@@H]1C(=O)O)C(=O)NCCCCN=C(N)N", "note": "[E-64]", "values": [{"measurement": "Inhibition of cleavage of UFNG1 by M. bovis cells", "setting": "M. bovis cells [1]; FRET substrate UFNG1", "result": "do not inhibit cleavage of UFNG1 appreciably"}]}, {"smiles": "CC(C)CC(=O)N[C@H](C(=O)N[C@H](C(=O)N[C@@H](CC(C)C)[C@@H](O)CC(=O)N[C@@H](C)C(=O)N[C@@H](CC(C)C)[C@@H](O)CC(=O)O)C(C)C)C(C)C", "note": "[pepstatin] (Isovaleryl-VV[Sta]A[Sta]-OH)", "values": [{"measurement": "Inhibition of cleavage of UFNG1 by M. bovis cells", "setting": "M. bovis cells [1]; FRET substrate UFNG1", "result": "do not inhibit cleavage of UFNG1 appreciably"}]}, {"smiles": "COC(=O)C(=O)[C@H](CC(C)C)NC(=O)[C@H](CCCCN)NC(=O)[C@H](Cc1ccccc1)NC(=O)OCc1ccccc1", "note": "[Cbz-Phe-Lys-Leu-CO—CO2Me]", "values": [{"measurement": "CC50 at 72 h", "setting": "[4]", "result": "> 100", "unit": "µM"}, {"measurement": "CC50 at 72 h", "setting": "[5]", "result": "> 100", "unit": "µM"}, {"measurement": "Cytotoxicity against THP1 macrophages", "setting": "THP1 macrophages", "result": "does not have significant cytotoxicity"}, {"measurement": "IC50", "setting": "Mtb in THP-1 macrophages; [6]", "result": "69.7 ± 18.7", "unit": "µM"}, {"measurement": "IC50", "setting": "Mtb in THP-1 macrophages; [7]", "result": "13.9 ± 4.86", "unit": "µM"}, {"measurement": "IC50", "setting": "Mtb in THP-1 macrophages; [8]", "result": "8.24 to 23.6", "unit": "µM"}, {"measurement": "IC50", "setting": "Mtb in THP-1 macrophages; [9]", "result": "19.6 ± 4.98", "unit": "µM"}, {"measurement": "IC50", "setting": "Mtb in THP-1 macrophages; [10]", "result": "12.7 to 29.3", "unit": "µM"}, {"measurement": "Mtb survival in THP1 macrophages", "setting": "Mtb in THP-1 macrophages", "result": "effectively reduces Mtb survival"}, {"measurement": "IC50 Range", "setting": "Mtb in THP-1 macrophages; THP-1 macrophages, time point 24 h", "result": "51.09 to 8.38", "unit": "μM"}, {"measurement": "Inhibition of cleavage of UFNG1 by M. bovis cells", "setting": "M. bovis cells [1]; FRET substrate UFNG1", "result": "most significant inhibition"}]}, {"smiles": "NCCc1ccc(S(=O)(=O)F)cc1", "note": "[AEBSF]", "values": [{"measurement": "Inhibition of cleavage of UFNG1 by M. bovis cells", "setting": "M. bovis cells [1]", "result": "most significant inhibition"}]}, {"smiles": "O=S(=O)(F)Cc1ccccc1", "note": "[PMSF, phenylmethylsulfonyl fluoride]", "values": [{"measurement": "Inhibition of cleavage of UFNG1 by M. bovis cells", "setting": "M. bovis cells [1]", "result": "did not significantly inhibit cleavage"}, {"measurement": "Inhibition of Hip1 (studies have shown)", "setting": "[3]", "result": "not an effective inhibitor of purified recombinant Hip1; also recorded: poor inhibitor of Hip1"}]}, {"smiles": "O=C(O)CN(CCN(CC(=O)O)CC(=O)O)CC(=O)O", "note": "[EDTA]", "values": [{"measurement": "Inhibition of cleavage of UFNG1 by M. bovis cells", "setting": "M. bovis cells [1]; FRET substrate UFNG1", "result": "do not inhibit cleavage of UFNG1 appreciably"}]}, {"smiles": "CC(C)C[C@H](NC(=O)[C@@H](NC(=O)N[C@@H](Cc1ccccc1)C(=O)O)[C@@H]1CCN=C(N)N1)C(=O)N[C@H](C=O)Cc1ccccc1", "note": "[chymostatin]", "values": [{"measurement": "Inhibition of Hip1 (studies have shown)", "setting": "[3]", "result": "inhibit Hip1"}]}]}
